Experimental data as given in patent US10994017B2, “Nerve labeling compositions and uses thereof” (Avelas Biosciences, Inc., priority 2016, dated 2021).
Square brackets hold non-standard residues; d marks the D form. Peptide text beside a SMILES is read from it. * marks the point of attachment. X2 = O=C(NCCN1C(=O)CC(*)C1=O)c1ccc(C(=O)O)c(-c2c3ccc(=O)cc-3oc3cc(O)ccc23)c1; X1 = O=C(O)c1ccc(C(=O)*)cc1-c1c2ccc(=O)cc-2oc2cc(O)ccc12

Tests used:
[1] = system: dorsal subcutaneous cervical or thoracic nerves; assay: In vivo fluorescence imaging of dorsal subcutaneous cervical and thoracic nerves (FIG. 2, FIG. 3); design: species or system mouse; conditions: FIG. 2 and FIG. 3, fluorescence versus reflected light images
From the text: (§1) Nerves are more clearly visualized utilizing NDM-38.

sciatic nerve = assay: Fluorescence contrast in murine nerves: in vivo imaging of sciatic nerve after intravenous injection; design: species or system mouse; conditions: for N/B contrast compared to the equivalent NDMs comprising L-amino acids / N/S contrast compared to the equivalent NDMs comprising L-amino acids: retro-inverso (D-amino acids) versus NDM-39, NDM-41
Description: The visualization contrast activity of fluorescent peptides for nerve imaging was assessed using male immunocompetent hairless SKH1-E mice purchased from Charles River (Charles River, Wilmington, Mass. 01887, USA). SKH1-E mice weighing 25-30 grams were housed in group of 4 in individually ventilated IVC disposable cages (Innovive, Inc., San Diego, Calif. 92121, USA) and maintained under controlled environmental conditions (12-h/12-h light/dark cycle; temperature of 64-79F and relative humidity of 30-70%) for at least 5 days before experimental use. Animals had free access to standard laboratory rodent diet (Cat. #2018, Teklad Global 18% Protein Rodent Diet; Harlan Laboratories, Inc. Indianapolis, Ind. 46250, USA) and acidified drinking water throughout the course of study. All experiments were carried out under Institutional Animal Care and Use Committee (IACUC) approved protocol.
On the day of study, each involved mouse was weighed, examined for general condition and restrained using a rotating tail injector (Cat. #RTI, Braintree Scientific, Braintree, Mass. 021585, USA) for intravenous (tail vein) injection of test compound in conscious animal. The test compounds were tested (25-150 nmol in 0.1 mL/mouse) was then injected intravenously in mouse using a 28G1/2 Insulin syringe (Cat. #14-826-79, Becton Dickinson and Company, Franklin Lakes, N.J. 07417, USA). After the intravenous injection, each involved mouse was housed back in its assigned cage and kept under controlled environmental conditions before being examined for fluorescence labeling of the sciatic nerve.
Two hours after the intravenous injection, each involved mouse was terminally anesthetized with a mixture of ketamine HCl (Zetamine™, 100 mg/mL, ANADA 200-055 approved by FDA, NDC-13985-702-10; VETone®, Boise, Id. 83705, USA) and xylazine (Rompun™, 100 mg/mL, NADA-047-956 approved by FDA, Bayer HealthCare, LLC, Animal Health Divison, KS 66201, USA) which consisted of a combination of 100 mg/kg of ketamine with 10 mg/kg of xylazine administered intraperitoneally. The terminally anesthetized mouse was transferred on the piece of cork (4×4 inches, Quartet®, ACCO Brands, Lincolnshire, Ill. 60069, USA) for blunt dissection of sciatic nerve after checking the toe pinch reflex. The sciatic nerve was exposed by removing skin from the dorsal surface of the thigh and blunt dissecting the muscles parallel and posterior to the femur after checking […] (no reflex to toe pinch) in terminally anesthetized mouse. Full body imaging of the terminally anesthetized mouse with both sciatic nerves exposed was then performed using a computerized UVP BioSpectrum® 500 Imaging System fitted with appropriate excitation/emission filters for fluorescein, Cy5, or other dye detection and a VisionWorks® LS Software (UVP-BioSpectrum Imaging System, Upland, Calif., USA) for image acquisition and analysis. After the mouse full body imaging, the exposed and saline moisturized sciatic nerves were subsequently imaged using computerized fluorescence stereomicroscope (SZX 10, Olympus Optical, CO, LTD, Japan) interfaced with PictureFrame™, an image processing application suitable for image acquisition and analysis (Optronics, Goleta, Calif. 93117) or an in-house built Microscope Imaging System interfaced with Spot Software 5.0 (SPOT Imaging Solutions, Sterling Heights, Mich. 48314) for image acquisition and analysis. All above-mentioned Imaging Systems were equipped with appropriate excitation/emission filters for fluorescein, Cy5, or other dye detection. Following the imaging session, all captured images of fluorescently labeled sciatic nerves were examined and analyzed using the image processing program Image J to generate quantitative fluorescence data. For each involved mouse, fluorescence intensity of each examined sciatic nerve was acquired by drawing an area on the surface of the exposed sciatic nerve using Image J features and capabilities. […]

renal nerve = assay: In vivo fluorescence imaging of renal nerve (FIG. 5); design: species or system mouse; conditions: FIG. 5, fluorescence versus reflected light images
splanchic nerve = assay: In vivo fluorescence imaging of splanchnic nerve (FIG. 4); conditions: FIG. 4, mouse, fluorescence versus reflected light images
From the text: as §1

Row | Compound | fluorescence contrast (nerve/background) of mouse dorsal subcutaneous cervical or thoracic nerves [1] | N/B contrast relative to NDMs with glycine linkers (sciatic nerve; alanine linker versus NDM-44) | N/S contrast relative to NDMs with glycine linkers (sciatic nerve; alanine linker versus NDM-44) | N/B contrast compared to the equivalent NDMs comprising L-amino acids (sciatic nerve) | N/S contrast compared to the equivalent NDMs comprising L-amino acids (sciatic nerve) | fluorescence contrast (nerve/background) of mouse renal nerve (renal nerve) | fluorescence contrast (nerve/background) of splanchic nerve (splanchic nerve) | fluorescence contrast (nerve/background) of mouse sciatic nerve (sciatic nerve; FIG. 1, fluorescence versus reflected light images)
1 | CC(=O)N[C@H](CCCCNC(=O)c1ccc(C(=O)O)c(-c2c3ccc(=O)cc-3oc3cc(O)ccc23)c1)C(=O)N[C@H](C)C(=O)N[C@H](C)C(=O)N[C@H](C)C(=O)N[C@@H](C(=O)N[C@H](Cc1c[nH]cn1)C(=O)N[C@H](CCC(=O)O)C(N)=O)[C@H](C)O [NDM-38, Ac-[D-Lys(6FAM)]-(D-Ala)-(D-Ala)-(D-Ala)-(D-Thr)-(D-His)-(D-Glu)-NH2] (Ac-[dK](X1)[dA][dA][dA][dT][dH][dE]-NH2) | very high fluorescence contrast | higher | higher | substantially higher | substantially higher | very high fluorescence contrast | very high fluorescence contrast | 
2 | CC(=O)N[C@H](CSC1CC(=O)N(CCNC(=O)c2ccc(C(=O)O)c(-c3c4ccc(=O)cc-4oc4cc(O)ccc34)c2)C1=O)C(=O)N[C@H](C)C(=O)N[C@H](C)C(=O)N[C@H](C)C(=O)N[C@@H](C(=O)N[C@H](Cc1c[nH]cn1)C(=O)N[C@H](CCC(=O)O)C(N)=O)[C@H](C)O (stereo partly drawn) [NDM-40, Ac-[D-Cys(6FAM)]-(D-Ala)-(D-Ala)-(D-Ala)-(D-Thr)-(D-His)-(D-Glu)-NH2] (Ac-[dC](X2)[dA][dA][dA][dT][dH][dE]-NH2) |  |  |  | substantially higher | substantially higher |  |  | very high fluorescence contrast
